The values below are quoted from earlier work in PMC5962642, “Dynamic imaging of adaptive stress response pathway activation for prediction of drug induced liver injury” (Archives of Toxicology, 2018).

For data set [1] the following is noted: C-max obtained from FDA or literature; ref per compound (FDA, Dailymed, Xu, O’Brien, Khetani, Regenthal, Gustafsson, Dawson, Ogutu, Patel, Schmidt, Ravic, Keisu, Hu, Wagner); cited from earlier work.
The conditions of data set [2]: ref Chen et al. [2016], cited from earlier work; for DILI con. (DILI-concern labeling): FDA DILI labeling; for Hepa. (hepatotoxicity class): FDA labeling in eight classes of hepatotoxicity.

Turning to `CCN(CC)C(=S)SSC(=S)N(CC)CC` [Disulfiram], the Cmax (commonly the maximum level reached in the sampled fluid or tissue) in data set [1] was 5400 nM.
`O=C1CC2(CCCC2)CC(=O)N1CCCCN1CCN(c2ncccn2)CC1` [Buspirone]: the peak concentration (Cmax) in data set [1] was 16 nM. Further, the “DILI con. (DILI-concern labeling)” value in data set [2] was “Amb.-DC”.
In the case of `CN(C/C=C/C#CC(C)(C)C)Cc1cccc2ccccc12` [Terbinafine], the Cmax in data set [1] was 4000 nM. In data set [2], the “DILI con. (DILI-concern labeling)” value is “Most-DC” and the “Hepa. (hepatotoxicity class)” value is 8.
For the compound `Clc1ccccc1C(c1ccccc1)(c1ccccc1)n1ccnc1` [Clotrimazole], in data set [1], the Cmax is 87 nM. In addition, in data set [2], the “DILI con. (DILI-concern labeling)” value is on record as “Less-DC” and the “Hepa. (hepatotoxicity class)” value is reported as 3.
Turning to `C[C@@H]1C[C@H]2[C@@H]3CCC4=CC(=O)C=C[C@]4(C)[C@@]3(F)[C@@H](O)C[C@]2(C)[C@@]1(O)C(=O)CO` [Dexamethasone], the Cmax in data set [1] is 224 nM. In data set [2], the “DILI con. (DILI-concern labeling)” value is “Amb.-DC” and the “Hepa. (hepatotoxicity class)” value is reported as 3.
Take `C[C@H](CS)C(=O)N1CCC[C@H]1C(=O)O` [Captopril]: in data set [1], the Cmax is 8880 nM. The “Hepa. (hepatotoxicity class)” value in data set [2] is given as 7.
`CCOC(=O)CN[C@@H](C(=O)N1CC[C@H]1C(=O)NCc1ccc(/C(N)=N\O)cc1)C1CCCCC1` [Ximelagatran]: in data set [1], the Cmax is 300 nM.
Consider `CC(CCc1ccccc1)NCC(O)c1ccc(O)c(C(N)=O)c1` (centres unmarked) [Labetalol], for which the Cmax in data set [1] is 2680 nM. Also, in data set [2], the “DILI con. (DILI-concern labeling)” value is “Most-DC” and the “Hepa. (hepatotoxicity class)” value is 8.
For the compound `CNCCCC12CCC(c3ccccc31)c1ccccc12` [Maprotiline], the Cmax in data set [1] is 180 nM. In data set [2], the “DILI con. (DILI-concern labeling)” value was “Amb.-DC” and the “Hepa. (hepatotoxicity class)” value was 5.
Consider `CCCCNC(=O)NS(=O)(=O)c1ccc(C)cc1` [Tolbutamide], for which the Cmax in data set [1] was 233000 nM.
With `CNC[C@H](O)c1ccc(O)c(O)c1` [Epinephrine], the Cmax in data set [1] is 2 nM. Moreover, in data set [2], the “DILI con. (DILI-concern labeling)” value is “No-DC” and the “Hepa. (hepatotoxicity class)” value is 1.
Regarding `C1CCC(C(CC2CCCCN2)C2CCCCC2)CC1` (centres unmarked) [Perhexiline], in data set [2], the “DILI con. (DILI-concern labeling)” value is reported as “Most-DC” and the “Hepa. (hepatotoxicity class)” value is on record as 8.
With `CC(C)NCC(O)c1ccc(O)c(O)c1` (centres unmarked) [Isoproterenol], in data set [1], the Cmax was 2020 nM. In data set [2], the “DILI con. (DILI-concern labeling)” value is given as “No-DC” and the “Hepa. (hepatotoxicity class)” value was 1.
For `OCCOCCN1CCN(C(c2ccccc2)c2ccc(Cl)cc2)CC1` (centres unmarked) [Hydroxyzine], in data set [1], the Cmax is 270 nM. In data set [2], the “DILI con. (DILI-concern labeling)” value was “No-DC” and the “Hepa. (hepatotoxicity class)” value is reported as 1.
In the case of `COCCc1ccc(OCC(O)CNC(C)C)cc1` (centres unmarked) [Metoprolol], the Cmax in data set [1] is 560 nM.
Take `COc1ccc2c(c1)c(CC(=O)O)c(C)n2C(=O)c1ccc(Cl)cc1` [Indomethacin]: the Cmax in data set [1] was 5590 nM.
For `CC(=O)CC(c1ccccc1)c1c(O)c2ccccc2oc1=O` (centres unmarked) [Warfarin], the Cmax in data set [1] is 4860 nM.
For the compound `Clc1ccccc1CN1CCc2sccc2C1` [Ticlopidine], in data set [1], the Cmax was 8070 nM.
With `O=C(N[C@H](CO)[C@H](O)c1ccc([N+](=O)[O-])cc1)C(Cl)Cl` [Chloramphenicol], the Cmax in data set [1] is 46400 nM.
As to `CC[C@H]1OC(=O)[C@H](C)[C@@H](O[C@H]2C[C@@](C)(OC)[C@@H](O)[C@H](C)O2)[C@H](C)[C@@H](O[C@@H]2O[C@H](C)C[C@H](N(C)C)[C@H]2O)[C@](C)(O)C[C@@H](C)C(=O)[C@H](C)[C@@H](O)[C@]1(C)O` [Erythromycin], in data set [1], the Cmax is 11000 nM.
Consider `CNCCC(Oc1ccc(C(F)(F)F)cc1)c1ccccc1` (centres unmarked) [Fluoxetine], for which the “Hepa. (hepatotoxicity class)” value in data set [2] is 3.
For the compound `Cc1cccc(CN2CCN(C(c3ccccc3)c3ccc(Cl)cc3)CC2)c1` (centres unmarked) [Meclizine], in data set [2], the “DILI con. (DILI-concern labeling)” value is listed as “No-DC” and the “Hepa. (hepatotoxicity class)” value was 1.
In the case of `COc1ccc([C@@H]2Sc3ccccc3N(CCN(C)C)C(=O)[C@@H]2OC(C)=O)cc1` [Diltiazem], in data set [1], the Cmax was 356 nM.
Consider `Cn1cc[nH]c1=S` [Methimazole], for which the Cmax in data set [1] was 2620 nM.
